Target: VR1 (Homo sapiens, UniProt Q8NER1)
Assay: Calcium uptake assay, low pH (proton) stimulus
Type: cell-based
Design: expressed in transfected cells; host or cells: T-REx HEK 293 (Invitrogen), pcDNA5/TO vector
Details: 0.3 μM compound, low pH agonist, HEK 293 cells expressing hVR1; for inhibition at 0.3 µM: HEK293, read-out: Low pH % Inhib. @ 0.3 μM

Chain of VR1 (Q8NER1 whole entry): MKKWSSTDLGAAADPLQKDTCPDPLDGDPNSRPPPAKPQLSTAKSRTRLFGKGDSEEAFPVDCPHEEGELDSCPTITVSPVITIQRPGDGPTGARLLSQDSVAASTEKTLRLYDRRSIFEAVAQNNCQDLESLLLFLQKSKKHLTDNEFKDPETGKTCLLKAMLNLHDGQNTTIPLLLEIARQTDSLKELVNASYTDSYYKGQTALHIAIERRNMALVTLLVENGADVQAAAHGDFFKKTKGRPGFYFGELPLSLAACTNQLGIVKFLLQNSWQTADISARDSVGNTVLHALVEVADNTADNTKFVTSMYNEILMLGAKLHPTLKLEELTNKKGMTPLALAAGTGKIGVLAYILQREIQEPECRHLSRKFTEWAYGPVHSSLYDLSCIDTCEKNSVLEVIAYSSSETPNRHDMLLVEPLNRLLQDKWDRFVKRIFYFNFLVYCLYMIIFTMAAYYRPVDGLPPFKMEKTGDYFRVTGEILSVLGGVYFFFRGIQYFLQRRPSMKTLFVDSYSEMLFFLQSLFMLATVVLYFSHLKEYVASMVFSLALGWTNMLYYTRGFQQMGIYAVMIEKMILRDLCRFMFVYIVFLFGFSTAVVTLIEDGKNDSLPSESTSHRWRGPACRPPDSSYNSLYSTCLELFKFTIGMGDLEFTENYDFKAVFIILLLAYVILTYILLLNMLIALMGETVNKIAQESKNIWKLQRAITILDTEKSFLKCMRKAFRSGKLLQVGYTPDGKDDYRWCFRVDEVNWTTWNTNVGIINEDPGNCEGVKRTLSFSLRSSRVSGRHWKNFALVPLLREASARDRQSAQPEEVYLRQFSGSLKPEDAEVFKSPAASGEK

Low pH % Inhib. @ 0.3 μM [%]	inhibition at 0.3 µM [%]	SMILES
116		O=C(Nc1ccc2c(c1)OCC(CO)O2)c1ccc(/C=C/C(F)(F)F)cc1 (single isomer, unassigned) [Compound 108]
	83	CC(C)(C)/C=C/c1ccc(C(=O)Nc2ccc3c(c2)OCCO3)cc1 [Compound 1]
	26	CC(C)/C=C/c1ccc(C(=O)Nc2ccc3c(c2)OCCO3)cc1 [Compound 8]
	37	CC(C)/C=C/c1ccc(C(=O)Nc2ccc3[nH]ccc3c2)cc1 [Compound 9]
	34	CC(C)/C=C/c1ccc(C(=O)Nc2ccc3ncccc3c2)cc1 [Compound 11]
	11	CC(C)/C=C/c1ccc(C(=O)Nc2ccc3c(c2)Cc2ccccc2-3)cc1 [Compound 13]
	21	C/C(=C/C(C)(C)C)c1ccc(C(=O)Nc2ccc3[nH]ccc3c2)cc1 [Compound 16]
	12	C/C(=C/C(C)(C)C)c1ccc(C(=O)Nc2ccc3ncccc3c2)cc1 [Compound 18]
	14	CCn1c2ccccc2c2cc(NC(=O)c3ccc(/C(C)=C\C(C)(C)C)cc3)ccc21 [Compound 19]
	98	CC(C)(C)C#Cc1ccc(C(=O)Nc2cccc3cnccc23)cn1 [Compound 23]
	101	CC(C)(C)C#Cc1ccc(C(=O)Nc2cnc3ccccc3c2)cc1 [Compound 24]
	105	Cn1ccc2cc(NC(=O)c3ccc(C#CC(C)(C)C)nc3)ccc21 [Compound 25]
	104	CC(C)(C)C#Cc1ccc(C(=O)Nc2ccc3c(c2)OCO3)cn1 [Compound 26]
	102	CC(C)(C)C#Cc1ccc(C(=O)Nc2ccc3c(c2)OCO3)cc1 [Compound 28]
	105	CC(C)(C)C#Cc1ccc(C(=O)Nc2ccc3c(c2)OCCO3)cc1 [Compound 30]
101		CC(C)(C)C#Cc1ccc(C(=O)Nc2cnc3ccccc3c2)cc1 [Compound 32]
	105	Cn1ccc2cc(NC(=O)c3ccc(C#CC(C)(C)C)cc3)ccc21 [Compound 33]
	17	Cn1ccc2cc(NC(=O)c3ccc(/C=C/C(F)(F)F)cc3)ccc21 [Compound 37]
	86	CC(C)(C)/C=C/c1ccc(C(=O)Nc2cccc3cnccc23)cc1 [Compound 40]
	101	CC(C)(C)/C=C/c1ccc(C(=O)Nc2cnc3ccccc3c2)cc1 [Compound 41]
	98	Cn1ccc2cc(NC(=O)c3ccc(/C=C/C(C)(C)C)cc3)ccc21 [Compound 42]

Low pH % Inhib. @ 0.3 μM [%]	inhibition at 0.3 µM [%]	SMILES
	105	O=C(Nc1ccc2c(c1)OCCO2)c1ccc(C#CC(F)(F)F)cc1 [Compound 43]
	87	Cn1ccc2ccc(NC(=O)c3ccc(C#CC(C)(C)C)nc3)cc21 [Compound 44]
	55	O=C(Nc1cnc2ccccc2c1)c1ccc(C#CC2CC2)cc1 [Compound 47]
	96	O=C(Nc1ccc2c(c1)OCCO2)c1ccc(C#CC2CC2)cc1 [Compound 49]
	5	CC(C)(C)C#Cc1ccc(C(=O)Nc2ccc3c(c2)OC(F)(F)O3)cc1 [Compound 50]
	81	Cc1nc2cc(NC(=O)c3ccc(/C=C/C(F)(F)F)cc3)ccc2s1 [Compound 53]
	76	O=C(Nc1ccc2sc(CO)nc2c1)c1ccc(C#CC(F)(F)F)cc1 [Compound 54]
	101	O=C(Nc1ccc2sc(CO)nc2c1)c1ccc(/C=C/C(F)(F)F)cc1 [Compound 55]
	104	Cc1nc2cc(NC(=O)c3ccc(C#CC(C)(C)C)cc3)ccc2s1 [Compound 56]
	10	CC(C)(C)C#Cc1ccc(C(=O)Nc2cccc3cnccc23)c(Cl)n1 [Compound 66]
	8	CC(C)(C)C#Cc1ccc(C(=O)Nc2ccc3c(c2)N(CCN2CCOCC2)CC3(C)C)cc1 [Compound 67]
	140	CC(=O)N1CC(C)(C)c2ccc(NC(=O)c3ccc(C#CC(C)(C)C)cc3)cc21 [Compound 68]
	103	CC(C)(C)C#Cc1ccc(C(=O)Nc2ccc3c(c2)NCC3(C)C)cc1 [Compound 69]
	185	O=C(Nc1ccc2c(c1)OCCN2)c1ccc(C#CC(F)(F)F)cc1 [Compound 70]
	10	CC1(C)Oc2cc(NC(=O)c3ccc(/C=C/C(F)(F)F)cc3)ccc2NC1=O [Compound 71]
	124	CC1(C)CNc2ccc(NC(=O)c3ccc(/C=C/C(F)(F)F)cc3)cc2O1 [Compound 72]
	94	CN1CCOc2cc(NC(=O)c3ccc(/C=C/C(F)(F)F)cc3)ccc21 [Compound 73]
	102	Cc1cc(C(=O)Nc2cccc3cnccc23)ccc1C#CC(F)(F)F [Compound 75]
	88	CC(=CC(F)(F)F)c1ccc(C(=O)Nc2cccc3cnccc23)cc1 [Compound 76]
	90	Cc1cc(/C=C/C(F)(F)F)ccc1C(=O)Nc1cccc2cnccc12 [Compound 77]
	32	CN1C(=O)C(C)(C)Oc2ccc(NC(=O)c3ccc(/C=C/C(F)(F)F)cc3)cc21 [Compound 78]

Low pH % Inhib. @ 0.3 μM [%]	inhibition at 0.3 µM [%]	SMILES
	92	CN1CCCc2ccc(NC(=O)c3ccc(C#CC4CC4)cc3)cc21 [Compound 80]
	98	CC(C)(C)C#Cc1ccc(C(=O)Nc2ccc3c(c2)OCC(CO)O3)cc1 (stereo not shown) [Compound 81]
	76	CC(C)(C)C#Cc1ccc(C(=O)Nc2ccc3c(c2)OC(CO)CO3)cc1 (stereo not shown) [Compound 82]
	45	CN1C(=O)COc2ccc(NC(=O)c3ccc(/C=C/C(F)(F)F)cc3)cc21 [Compound 84]
	34	CN1CCCc2ccc(NC(=O)c3ccc(C#CC(C)(C)C)nc3)cc21 [Compound 85]
	83	O=C(Nc1ccc2c(c1)OC(CO)CO2)c1ccc(C#CC2CC2)cc1 (stereo not shown) [Compound 86]
	98	O=C(Nc1ccc2c(c1)OCC(CO)O2)c1ccc(C#CC2CC2)cc1 (stereo not shown) [Compound 87]
	48	CN1CCOc2ccc(NC(=O)c3ccc(/C=C/C(F)(F)F)cc3)cc21 [Compound 88]
	21	CC(C)(C)C#Cc1ccc(C(=O)Nc2cccc3cnccc23)nc1 [Compound 91]
	71	O=C(Nc1ccc2c(c1)S(=O)(=O)C=C2)c1ccc(/C=C/C(F)(F)F)cc1 [Compound 92]
	101	O=C(Nc1ccc2c(c1)OCC(CO)O2)c1ccc(/C=C/C(F)(F)F)cc1 (stereo not shown) [Compound 97]
	78	CN1CCCc2ccc(NC(=O)c3ccc(C#CC4CCCC4)cc3)cc21 [Compound 98]
	94	C/C(=C\C(F)(F)F)c1ccc(C(=O)Nc2ccc3c(c2)OCCO3)cc1 [Compound 99]
	42	O=C(Nc1ccc2c(c1)OCCO2)c1ccc(C#CC2CCCC2)cc1 [Compound 100]
	94	O=C(Nc1cccc2cnccc12)c1ccc(C#CC2CCCC2)cc1 [Compound 101]
	91	C/C(=C\c1ccc(C(=O)Nc2ccc3c(c2)OCCO3)cc1)C(F)(F)F [Compound 102]
	5	O=C(Nc1ccc2c(c1)NCCO2)c1ccc(C#CC2CCCC2)cc1 [Compound 106]
	1	CC(C)(O)COc1cc(C(=O)Nc2ccc3c(c2)OCCO3)ccc1C#CC1CC1 [Compound 110]
	9	CC1=Cc2c(cccc2NC(=O)c2ccc(/C=C/C(F)(F)F)cc2)NN1 [Compound 113]
	90	Cc1cc2c(NC(=O)c3ccc(/C=C/C(F)(F)F)cc3)cccc2cn1 [Compound 114]
	90	O=C(Nc1ccc2nccnc2c1)c1ccc(/C=C/C(F)(F)F)cc1 [Compound 115]

Low pH % Inhib. @ 0.3 μM [%]	inhibition at 0.3 µM [%]	SMILES
	98	O=C(Nc1ccc2c(c1)OCCN2)c1ccc(C#CC2CCCC2)cc1 [Compound 117]
	19	COc1cc(/C=C\C(F)(F)F)ccc1C(=O)Nc1ccc2c(c1)OCCN2 [Compound 120]
	19	COc1cc(/C=C\C(F)(F)F)ccc1C(=O)Nc1ccc2c(c1)OCCO2 [Compound 121]
	12	COc1cc(C#CC(C)(C)C)ccc1C(=O)Nc1ccc2c(c1)OCCN2 [Compound 128]
	104	O=C(Nc1ccc2c(c1)OCCN2)c1c(F)cc(C#CC2CC2)cc1F [Compound 130]
	29	O=C(Nc1ccc2c(c1)OCCN2)c1ccc(/C=C\C(F)(F)F)cc1F [Compound 135]
	50	O=C(Nc1cc2c(cc1Cl)NCCO2)c1ccc(/C=C/C(F)(F)F)cc1 [Compound 136]
	103	CC(C)(C)C#Cc1ccc(C(=O)Nc2ccc3c(c2)OCCN3)c(F)c1 [Compound 137]
	95	Cc1cc(C#CC2CCCC2)ccc1C(=O)Nc1ccc2c(c1)OCCN2 [Compound 139]
	33	Cc1cc(C#CC2CCCC2)ccc1C(=O)Nc1ccc2c(c1)OCCO2 [Compound 140]
	87	Cc1cc(C#CC2CCCC2)ccc1C(=O)Nc1ccc2c(c1)OCC(CO)O2 (stereo not shown) [Compound 141]
	70	O=C(Nc1ccc2c(c1)OCCO2)c1ccc(/C=C/C(F)(F)F)cc1F [Compound 142]
	100	O=C(Nc1ccc2c(c1)OCCN2)c1ccc(C#CC2CC2)cc1F [Compound 143]
	41	O=C(Nc1ccc2c(c1)OCCO2)c1ccc(C#CC2CC2)cc1F [Compound 145]
	93	CC(C)(C)C#Cc1ccc(C(=O)Nc2ccc3c(c2)OCCN3)c(Cl)c1 [Compound 146]
	88	O=C(Nc1ccc2c(c1)OCCN2)c1ccc(C#CC2CC2)cc1Cl [Compound 147]
	104	O=C(Nc1ccc2c(c1)OCCN2)c1ccc(/C=C/C(F)(F)F)cc1Cl [Compound 148]
	71	O=C(Nc1ccc2c(c1)OCC(CO)O2)c1ccc(/C=C/C(F)(F)F)cc1F (stereo not shown) [Compound 149]

SMILES	Low pH % Inhib. @ 0.3 μM [%]	inhibition at 0.3 µM [%]
CS(=O)(=O)OCC1COc2cc(NC(=O)c3ccc(C#CC4CCCC4)cc3)ccc2O1 (stereo not shown) [Compound 116]	10	
